Test results: patent publication US8716293B2, “Macrocyclic integrase inhibitors” (Janssen R&D Ireland, priority 2010, dated 2014)

Columns and labels:
[1] = test system: HIV-1 SDM strain Q148R; test: cell-based HIV-1 replication assay in MT4-LTR-EGFP cells, Q148R mutant; settings: fold change in activity against Q148R mutant compared to wild type HIV
Excerpt: (§1) MT4-LTR-enhanced green fluorescent protein (EGFP) cells were obtained by transfecting MT4 cells with a selectable construct encompassing the coding sequences for the HIV LTR as a promoter for the expression of EGFP and subsequent selection of permanently transfected cells. MT4-cytomegalovirus (CMV)-EGFP cells were obtained by selection for permanently transformed MT4 cells with a CMV-EGFP reporter gene. Cell lines were maintained in RPMI 1640 medium supplemented with 10% heat-inactivated fetal calf serum, 2 mM L-glutamine, 0.1% NaHCO3, and antibiotics (0.02% gentamicin and 0.8% G418) and incubated in a humidified incubator with a 5% CO2 atmosphere at 37° C.
(§2) N155H and Q148R mutant Integrase coding sequences were constructed in the pUC19-5′HXB2D vector (XbaI-SalI fragment of pHXB2D), containing the HIV-1 clone HXB2D IN coding sequence, by using a QuikChange site-directed mutagenesis kit (Stratagene, La Jolla, Calif.) and HPLC-purified primers (Genset Oligos, La Jolla, Calif.). Altered plasmid sequences were confirmed by dideoxyribose sequencing. For generation of site-directed mutant (SDM) virus stocks, MT4 cells were subcultured at a density of 250,000 cells/ml on the day before transfection. Cells were pelleted and resuspended in phosphate-buffered saline at a concentration of 3.1×10^6 cells/ml. A 0.8-ml portion ([…]) was used for each transfection. Transfections were performed with a Bio-Rad Gene Pulser (Bio-Rad, Hercules, Calif.) with 0.4-cm electrode cuvettes (Bio-Rad). Cells were electroporated with 10 μg of SalI-linearized pUC19-3′HXB2D (SalI-XbaI fragment of pHXB2D) and 5 μg of SalI-digested SDM at 250 μF and 300 V, followed by a 30-min incubation at room temperature. Ten ml of fresh culture medium was then added to the suspension of transfected cells, and incubation was performed at 37° C. in a humidified atmosphere with 5% CO2. Cell cultures were monitored for the appearance of cytopathic effect (CPE).
(§3) The inhibitory antiviral activity of different compounds was determined in a cell-based HIV-1 replication assay. MT4-LTR-EGFP cells (150,000 cells/ml) were infected with HIV-1 (IIIB or SDM strains Q148R, N155H, or G140S-Q148H; multiplicity of infection [MOI] of 0.0025) in the presence or absence of inhibitor. After 3 days of incubation, the inhibition of HIV replication was quantified by measuring EGFP fluorescence, and expressed as the compound concentration required for 50% inhibition of HIV-1 replication in cell culture (EC50).

[2] = test system: HIV-1 SDM strain G140S-Q148H; test: cell-based HIV-1 replication assay in MT4-LTR-EGFP cells, G140S-Q148H mutant; settings: fold change in activity against G140S-Q148H mutant compared to wild type HIV
Excerpt: as §1, §2, §3

[3] = test system: HIV-1 SDM strain N155H; test: cell-based HIV-1 replication assay in MT4-LTR-EGFP cells, N155H mutant; settings: fold change in activity against N155H mutant compared to wild type HIV
Excerpt: as §1, §2, §3

[4] = test system: HIV-1 LAI (IIIB); test: antiviral assay in the presence of 50% human serum; format: cell-based; settings: MT-4-LTR-EGFP cells, 4 days, resazurin cell viability
Method: For the antiviral assay in the presence of 50% human serum, MT-4-LTR-EGFP cells were infected with HIV-1 LAI (IIIB) at a MOI of 0.001 to 0.01 CCID50/cell in RPMI1640 medium. Following 1 h of incubation, cells were washed and plated into a 96-well plate containing serial dilutions of test compound in the presence of 10% fetal calf serum or 50% human serum. After 4 days of incubation, the EC50 in the presence of 50% human serum (EC50/HS) was determined by a cell viability assay using resazurin (as described by Fields, R. D., and M. V. Lancaster (1993) Am. Biotechnol. Lab. 11:48-50).

| Structure (SMILES) | FC-Q148R [1] | FC-G140S-Q148H [2] | FC-N155H [3] | EC50 [4] [nM] |
| --- | --- | --- | --- | --- |
| CCN1C[C@H](C)n2c(c(O)c3c(=O)n4nc(c32)N2CCN(CCCCCOc3cc(F)ccc3C4)S2(=O)=O)C1=O [Compound 2a] | 0.7 | 3.3 | 25.3 | 682 |
| CCN1C[C@H](C)n2c(c(O)c3c(=O)n4nc(c32)N2CCN(CCCCCOc3cc(F)ccc3C4)S2(=O)=O)C1=O [Compound 2b] | 0.9 | 6.2 | 8.0 | 8 |
| CCN1C[C@H](C)n2c(c(O)c3c(=O)n4nc(c32)N(C)S(=O)(=O)CCCOc2cc(F)ccc2C4)C1=O [Compound 8] | 3.3 | 11.3 | 11.7 | 10 |
| CCN1C[C@H](C)n2c(c(O)c3c(=O)n4nc(c32)N(C)S(=O)(=O)[C@@H](C)CCCCOc2cc(F)ccc2C4)C1=O [Compound 9] | 0.4 | 1.2 | 2.0 | 1930 |
| CCN1C[C@H](C)n2c(c(O)c3c(=O)n4nc(c32)N(C)S(=O)(=O)[C@H](C)CCCCOc2cc(F)ccc2C4)C1=O [Compound 10] | 0.5 | 1.2 | 2.8 | 17 |
| CCN1C[C@H](C)n2c(c(O)c3c(=O)n4nc(c32)N(CC)S(=O)(=O)CCCCOc2cc(F)ccc2C4)C1=O [Compound 11] | 2.1 | 14.3 | 5.1 | 9 |
| CCN1C[C@H](C)n2c(c(O)c3c(=O)n4nc(c32)N(C2CC2)S(=O)(=O)CCCCOc2cc(F)ccc2C4)C1=O [Compound 12] | 0.7 | 5.1 | 3.5 | 13 |
| CCN1c2nn(c(=O)c3c(O)c4n(c23)[C@@H](C)CN(C(C)C)C4=O)Cc2ccc(F)cc2OCCCCS1(=O)=O [Compound 13] | 0.7 | 2.6 | 3.5 | 11 |
| CC(C)N1C[C@H](C)n2c(c(O)c3c(=O)n4nc(c32)N(C2CC2)S(=O)(=O)CCCCOc2cc(F)ccc2C4)C1=O [Compound 14] | 1.0 | 4.3 | 3.5 | 18 |
| CCN1C[C@H](C)n2c(c(O)c3c(=O)n4nc(c32)N(CC)S(=O)(=O)CCCCCOc2cc(F)ccc2C4)C1=O [Compound 15] | 0.5 | 1.4 | 3.4 | 33 |
| CCN1C[C@H](C)n2c(c(O)c3c(=O)n4nc(c32)N(C2CC2)S(=O)(=O)CCCCCOc2cc(F)ccc2C4)C1=O [Compound 16] | 0.6 | 1.3 | 3.5 | 43 |
| CCN1C[C@H](C)n2c(c(O)c3c(=O)n4nc(c32)N(C)S(=O)(=O)CCCCOc2cc(F)c(Cl)cc2C4)C1=O [Compound 17] | 0.6 | 1.9 | 4.7 | 24 |
| CCN1C[C@H](C)n2c(c(O)c3c(=O)n4nc(c32)N(C)S(=O)(=O)CCCCCOc2cc(F)c(Cl)cc2C4)C1=O [Compound 18] | 0.8 | 1.8 | 4.7 | 47 |
| CCN1C[C@H](C)n2c(c(O)c3c(=O)n4nc(c32)N(C)S(=O)(=O)CCCCOc2cc(F)c(F)cc2C4)C1=O [Compound 19] | 1.1 | 3.6 | 4.9 | 8 |
| CCN1C[C@H](C)n2c(c(O)c3c(=O)n4nc(c32)N(C)S(=O)(=O)CCCCCOc2cc(F)c(F)cc2C4)C1=O [Compound 20] | 0.6 | 1.5 | 4.8 | 17 |
| CCN1C[C@H](C)n2c(c(O)c3c(=O)n4nc(c32)N(C)S(=O)(=O)CCCCCNC(=O)c2cc(F)ccc2C4)C1=O [Compound 21] | 0.6 | 1.9 | 6.6 | 54 |

| Structure (SMILES) | FC-Q148R [1] | FC-G140S-Q148H [2] | FC-N155H [3] | EC50 [4] [nM] |
| --- | --- | --- | --- | --- |
| CCN1C[C@H](C)n2c(c(O)c3c(=O)n4nc(c32)N(C)S(=O)(=O)CCCNC(=O)c2cc(F)ccc2C4)C1=O [Compound 23] | 0.7 | 2.1 | 9.6 | 7 |
| CCN1C[C@H](C)n2c(c(O)c3c(=O)n4nc(c32)C(=O)NCCCCOc2cc(F)ccc2C4)C1=O [Compound 24] | 4.3 | 179.1 | 10.4 | 11 |
| CCN1C[C@H](C)n2c(c(O)c3c(=O)n4nc(c32)C(=O)NCCCCCOc2cc(Cl)ccc2C4)C1=O [Compound 25] | 0.3 | 3.7 | 3.5 | 138 |
| CCN1C[C@H](C)n2c(c(O)c3c(=O)n4nc(c32)C(=O)NCCCCCOc2cc(F)c(Cl)cc2C4)C1=O [Compound 26] | 0.8 | 4.1 | 4.3 | 32 |
| CCN1CCn2c(c(O)c3c(=O)n4nc(c32)C(=O)NCCCCCOc2cc(F)ccc2C4)C1=O [Compound 27] | 3.0 | 668.8 | 8.6 | 5 |
| C[C@H]1CN(C)C(=O)c2c(O)c3c(=O)n4nc(c3n21)C(=O)NCCCCCOc1cc(F)ccc1C4 [Compound 28] | 0.9 | 17.0 | 4.5 | 14 |
| CC(C)N1C[C@H](C)n2c(c(O)c3c(=O)n4nc(c32)C(=O)NCCCCCOc2cc(F)ccc2C4)C1=O [Compound 29] | 0.4 | 2.2 | 3.8 | 19 |
| CCN1C[C@H](C)n2c(c(O)c3c(=O)n4nc(c32)C(=O)N(C)CCCCOc2cc(F)ccc2C4)C1=O [Compound 30] | 41.1 | 572.0 | 410.4 | 28 |
| CCN1C[C@H](C)n2c(c(O)c3c(=O)n4nc(c32)C(=O)N(C)CCCCCOc2cc(F)c(Cl)cc2C4)C1=O [Compound 32] | 0.3 | 2.6 | 4.3 | 77 |
| CCN1C[C@H](C)n2c(c(O)c3c(=O)n4nc(c32)C(=O)N(C)CCCCCOc2cc(F)c(F)cc2C4)C1=O [Compound 34] | 0.4 | 5.9 | 7.4 | 18 |
| CC(C)N1C[C@H](C)n2c(c(O)c3c(=O)n4nc(c32)C(=O)N(C)CCCCCOc2cc(F)ccc2C4)C1=O [Compound 35] | 0.4 | 2.7 | 4.8 | 30 |
| C[C@H]1CN(C2CC2)C(=O)c2c(O)c3c(=O)n4nc(c3n21)C(=O)NCCCCCOc1cc(F)ccc1C4 [Compound 36] | 2.4 | 60.1 | 5.8 | 18 |
| C[C@H]1CN(C2CC2)C(=O)c2c(O)c3c(=O)n4nc(c3n21)C(=O)N(C)CCCCCOc1cc(F)ccc1C4 [Compound 37] | 0.8 | 109.5 | 8.8 | 22 |
| CCN1CCn2c(c(O)c3c(=O)n4nc(c32)C(=O)N(C)CCCCCOc2cc(F)ccc2C4)C1=O [Compound 38] | 1.2 | 106.3 | 6.8 | 29 |
| CCN1C[C@H](C)n2c(c(O)c3c(=O)n4nc(c32)NCCCNC(=O)c2cc(F)ccc2C4)C1=O [Compound 39] | 1.1 | 2.8 | 4.6 | 3370 |
